Measured values as given in patent publication US20230095530A1, “COMPOUND USED AS RET KINASE INHIBITOR AND APPLICATION THEREOF” (TYK Medicines, Inc., priority 2019, published 2023).
Read-outs that look alike come from different tables or passages of the source.

Key:
[1] = test system: tumor patients with RET fusion and mutation; details: phase I, cited from earlier work
wild-type RET kinase = wild-type RET kinase (Homo sapiens, UniProt P07949); experiment: Kinase activity assay against wild-type RET at ATP Km (33P-ATP, filter-binding); type: biochemical; details: ATP Km concentration, 10 concentrations
Procedure: […]. The biological activity screening of the compounds will be determined repeatedly at 10 concentrations.
Each sample was prepared into a solution with a concentration of 10 mM.
The test compound was dissolved in 100% dimethyl sulfoxide to a specific concentration. Integra Viaflo Assist was used to assist DMSO for (continuous) dilution.
Adding kinase into the newly prepared basic reaction buffer:
Adding any desired cofactors to the substrate solution;
Adding wild-type RET kinase into the substrate solution and gently mixing;
Using Acoustic technology (Echo 550; nanoliter range) to feed the compounds in 100% of dimethyl sulfoxide into the kinase reaction mixture and incubated at room temperature for 20 minutes.
Adding 33P-ATP (specific activity 10 Ci/1) into the reaction mixture to start the reaction.
Incubated at room temperature for 2 hours;
Radioactivity was detected by filter-binding method;
Kinase activity data was expressed as the percentage of remaining kinase activity in the test sample compared to the vehicle (dimethyl sulfoxide) reaction. Prism (GRAPHPAD software) was used to obtain IC50 value and curve-fitting.

Sequence of wild-type RET kinase (P07949 29-1114): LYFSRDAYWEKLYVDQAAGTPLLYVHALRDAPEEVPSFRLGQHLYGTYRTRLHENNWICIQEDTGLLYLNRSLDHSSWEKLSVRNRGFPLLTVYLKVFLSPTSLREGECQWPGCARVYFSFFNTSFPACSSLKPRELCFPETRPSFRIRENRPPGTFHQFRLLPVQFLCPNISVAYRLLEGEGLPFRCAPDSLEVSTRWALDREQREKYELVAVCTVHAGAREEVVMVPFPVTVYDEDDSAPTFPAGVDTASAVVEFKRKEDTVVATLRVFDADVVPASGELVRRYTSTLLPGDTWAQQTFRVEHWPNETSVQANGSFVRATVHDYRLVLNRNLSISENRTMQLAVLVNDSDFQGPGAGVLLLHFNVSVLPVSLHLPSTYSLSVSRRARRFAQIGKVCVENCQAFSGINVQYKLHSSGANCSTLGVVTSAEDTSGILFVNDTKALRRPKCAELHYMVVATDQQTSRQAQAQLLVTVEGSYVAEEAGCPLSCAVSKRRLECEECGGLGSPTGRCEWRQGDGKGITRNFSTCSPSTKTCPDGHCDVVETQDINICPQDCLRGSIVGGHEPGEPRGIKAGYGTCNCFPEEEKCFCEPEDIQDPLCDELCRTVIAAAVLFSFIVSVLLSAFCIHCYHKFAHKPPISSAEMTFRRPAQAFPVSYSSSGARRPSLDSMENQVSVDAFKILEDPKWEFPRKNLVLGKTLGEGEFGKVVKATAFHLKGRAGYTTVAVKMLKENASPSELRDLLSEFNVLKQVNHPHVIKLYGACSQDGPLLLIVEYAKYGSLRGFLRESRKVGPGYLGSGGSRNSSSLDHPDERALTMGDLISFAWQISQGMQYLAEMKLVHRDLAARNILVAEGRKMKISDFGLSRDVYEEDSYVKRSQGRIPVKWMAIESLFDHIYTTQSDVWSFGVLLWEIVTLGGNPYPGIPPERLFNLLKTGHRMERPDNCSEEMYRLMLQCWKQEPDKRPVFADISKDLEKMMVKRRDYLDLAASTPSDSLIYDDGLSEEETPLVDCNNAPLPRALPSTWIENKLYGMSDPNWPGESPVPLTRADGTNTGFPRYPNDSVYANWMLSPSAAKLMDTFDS

Q: Which results are given for `CO[C@]1(C(=O)N[C@@H](C)c2ccc(-n3cc(F)cn3)nc2)CC[C@H](c2nc(C)cc(Nc3cc(C)[nH]n3)n2)CC1` [BLU-667]?
A: ORR ([1]; patients with medullary thyroid carcinoma): 40%; ORR ([1]; patients with non-small cell lung cancer): 50%; overall remission rate (ORR) ([1]; tumor patients with RET fusion and mutation): 45%

Q: For `COc1ccc(CN2CCC(n3cc(-c4cc(-c5cnn(C)c5)cn5ncc(C#N)c45)cn3)C2)cn1` (stereo not drawn) [Compound C1], which IC50 (wild-type RET kinase) is on record?
A: Its IC50 is 1.56 nM.

Q: For `COc1ccc(CN2CCCC(n3cc(-c4cc(-c5cnn(C)c5)cn5ncc(C#N)c45)cn3)C2)cn1` (stereo not drawn) [Compound C2], which IC50 (wild-type RET kinase) is on record?
A: Its IC50 is 3.52 nM.

Q: With `COc1ccc(CN2C3CC2CN(c2ccc(-c4cc(OCC(C)(C)O)cc5nccc(C#N)c45)cn2)C3)cn1` [Compound C3] as the compound, how does the IC50 (wild-type RET kinase) read?
A: Its IC50 is 226 nM.

Q: Which IC50 (wild-type RET kinase) does the source give for `COc1ccc(CN2CCC(n3ccc(-c4cc(-c5cnn(C)c5)cn5ncc(C#N)c45)cc3=O)C2)cn1` (stereo not drawn) [Compound C5] here?
A: Its IC50 is 40.7 nM.

Q: For `COc1ccc(CN2CCCC(n3ccc(-c4cc(-c5cnn(C)c5)cn5ncc(C#N)c45)cc3=O)C2)cn1` (stereo not drawn) [Compound C7], which IC50 (wild-type RET kinase) is on record?
A: The IC50 was 27.3 nM.

Q: With `COc1ccc(CN2CCC(n3ccc(-c4cc(-c5cnn(C)c5)cn5ncc(C#N)c45)cc3=O)CC2)cn1` [Compound C8] as the compound, how does the IC50 (wild-type RET kinase) read?
A: The IC50 was 58 nM.
